According to PubChem BioAssay AID2305 (GlaxoSmithKline (GSK), 2010):
Where “and” joins values, the source holds several entries; their conditions need not be identical. Equal values may be shown once.

System: P. falciparum 3D7 growth, pLDH absorbance
Assay: blood-stage malaria parasite growth potency – strain 3D7, dose response (AID 2305)

Row | Compound | IC50
1 | CCc1cc(NCc2ccncc2)nc(Nc2ccc(F)cc2)n1 | 1330 nM
2 | CC(C)CCNC(=O)C1Cc2c([nH]c3cc(Br)ccc23)C2(CCN(Cc3ccccc3)CC2)N1 (stereo unspecified) | 790 nM
3 | Cn1nc(C(F)(F)F)c(-c2ccc(F)cc2)c1NC(=O)Nc1ccc(F)cc1 | 750 nM
4 | O=C(Nc1ccc(-c2nc3ccccc3[nH]2)cc1)C1CCCN(C2CCC2)C1 (stereo unspecified) | 1350 nM
5 | CCCN(C(=O)c1ccccc1C)c1nnc(-c2ccccc2C)s1 | 1110 nM
6 | O=C1CC(C(=O)O)CC(=O)N1 | 760 nM
7 | CCc1cc2c(Sc3nnc(N)s3)ncnc2s1 | 660 nM
8 | COc1ccc2c(NN=Cc3ccc(N(C)C)cc3)ccnc2c1 | 660 nM
9 | CCC(C)CN1CCC(N(C)c2cc(NC(=O)c3ccc(F)cc3)ccn2)CC1 (stereo unspecified) | 980 nM
10 | O=C(Nc1ccccc1)Nc1cccc(-c2nn3c(OCCN4CCCC4)cccc3c2-c2ccncc2)c1 | 400 nM
11 | CC(Nc1ccc2c(c1)OCCO2)C(=O)Nc1cc(C(F)(F)F)ccc1N1CCOCC1 (stereo unspecified) | 410 nM
12 | Clc1cc(Nc2ncnc3sc(C#C[C@H]4CCCN4)cc23)ccc1OCc1cccnc1Cl | 570 nM
13 | Cc1ccc2[nH]cc(/C=C/C(=O)NC3CCC(CCN4CCc5ccc(C#N)cc5CC4)CC3)c2c1 (stereo unspecified) | 920 nM
14 | CCCCCc1cc(O)c2c(c1)OC(C)(C)CC2C1=CCN(Cc2ccccc2)CC1 (stereo unspecified) | 770 nM
15 | Oc1ccccc1-c1nc2cccnc2n1CCc1cccc(C(F)(F)F)c1 | 1270 nM
16 | CC(Cc1ccc(C(=O)N2CCN(C(=O)c3ccc(CC(C)NCCc4cccc(Cl)c4)cc3)CC2)cc1)NCCc1cccc(Cl)c1 (stereo unspecified) | 680 nM
17 | O=C(Nc1ccc(SC(F)(F)F)cc1)Nc1ccnc2ccccc12 | 750 nM
18 | CCCc1c(C(=O)NC2CCC(CN3CCC(c4c[nH]c5ccccc45)CC3)CC2)cnn1-c1ccccc1 (stereo unspecified) | 1790 nM
19 | CC(C)CCN1CCC(Oc2cccc(NC(=O)c3ccc(C(F)(F)F)cc3)c2)CC1 | 630 nM
20 | CN(C)Cc1ccc(-c2cc3ncnc(Nc4ccc(OCc5cccc(F)c5)c(Cl)c4)c3s2)[nH]1 | 170 nM
21 | c1ncc(CCNc2nc(Nc3ccc4c(c3)OCO4)nc(NC3CCCC3)n2)[nH]1 | 1150 nM
22 | CN(Cc1ccccc1)C1CCN(CCc2c[nH]c3ccc(F)cc23)CC1 | 600 nM
23 | COc1ccc(CNC2CCN(C)CC2)cc1-c1ccc(S(=O)(=O)NCCc2ccccn2)c(C)c1 | 1150 nM
24 | COc1cccc(C2(C)CCN(CCCCNC(=O)c3ccc(NC(=O)c4ccc(Cl)cc4)cc3)CC2)c1 | 830 nM
25 | CC(=O)N(C)c1cccc(C(=O)Nc2cccc(-c3ccc(-c4nc5ccc(C(F)(F)F)cc5[nH]4)cc3)c2)c1 | 1000 nM
26 | Cc1cccc2[nH]c(-c3cccc(-c4ccc(CNCCCN5CCCC5=O)cc4)c3)nc12 | 960 nM

Row | Compound | IC50
27 | O=C(c1cccs1)N(Cc1cccc(-c2ccc(CNC3CCCC3)cc2)c1)C1CCN(Cc2ccccc2)CC1 | 1130 nM
28 | Oc1ccc(C2CNCCc3c2cc(O)c(OCc2ccccc2)c3Cl)cc1 (stereo unspecified) | 720 nM
29 | Cc1cc2cc(NC(=O)Nc3ccnc4ccccc34)ccc2n1C | 1090 nM
30 | CN(C)S(=O)(=O)c1ccc(N2CCN(CCC3(c4cccc(F)c4)CCN(C(=O)C(C)(C)C)CC3)CC2)c2nonc12 | 700 nM
31 | COc1cccc2c(NN=Cc3ccccc3[N+](=O)[O-])ccnc12 | 590 nM
32 | O=C(/C=C/c1ccc(Cl)c(Cl)c1)NCCCCCCN1CCN(C(=O)Nc2ccc(C(F)(F)F)cc2)CC1 | 400 nM
33 | Nc1cc(-c2ccc3ccccc3c2)nc2ccccc12 | 700 nM
34 | COc1cc(OC)cc(C(=O)Nc2cccc(-c3cn4ccc(C)cc4n3)c2)c1 | 990 nM
35 | COc1ccc(CN=C(N)Nc2nc(-c3ccc(OCCCn4ccnc4)cc3)cs2)cc1 | 390 nM
36 | COc1cccc(-c2cnc(N)c(-c3nc4ccc(C(F)(F)F)cc4[nH]3)c2)c1 | 650 nM
37 | Cn1c(=N)n(CC(=O)N2CCc3ccc(Cl)cc3C2Cc2ccc(Cl)c(Cl)c2)c2ccccc21 (stereo unspecified) | 870 nM
38 | COc1ccc(CCNC(=O)c2cc(C)ccc2O)cc1-c1ccc(C(C)(C)C)cc1 | 480 nM
39 | Cc1cc(C)c(CC(C)NCC(O)c2cccc(C(F)(F)F)c2)c(C)c1 (stereo unspecified) | 570 nM
40 | CC(=O)c1c(Cc2cccc(C(F)(F)F)c2)c[nH]c1C | 350 nM
41 | Cc1c(C(=O)N(C)C)sc2c1c(=O)n(Cc1ccccc1)c(=O)n2CC(=O)Nc1ccccc1F | 660 nM
42 | Cc1onc(-c2ccc(Cl)cc2)c1-c1ccnn1S(=O)(=O)c1ccc(Cl)cc1 | 710 nM
43 | C=CCNC(=O)CCCN=C(N)N | 720 nM
44 | Nc1ncc(-c2ccccc2)cc1-c1cccc2ncccc12 | 270 nM
45 | COC(=O)c1cccc(CNCc2cccc(-c3ccc(-c4nc5c(C)cccc5[nH]4)cc3)c2)c1 | 320 nM
46 | CCC(C)CNC(=O)CN1CN(c2ccccc2)C2(CCN(C(=O)c3ccc(Br)cc3)CC2)C1=O (stereo unspecified) | 1070 nM
47 | OCC1CCN(Cc2cccc(-c3ccc(-c4nc5ccc(F)cc5[nH]4)cc3)c2)CC1 | 720 nM
48 | O=C(Nc1cccc([N+](=O)[O-])c1)Nc1ccc(Cl)c(C(F)(F)F)c1 | 1120 nM
49 | COc1ccc(CN(C)CCCOc2ccc(NC(=O)c3cccc4c(=O)c5cccc(C)c5[nH]c34)cc2)cc1OC | 890 nM
50 | Cc1ccccc1C1CCN(C2CCC(NC(=O)/C=C/c3cccc(Cl)c3)CC2)CC1 (stereo unspecified) | 890 nM
51 | Cc1cccc(C)c1CNc1ccnc2cc(Br)ccc12 | 170 nM
52 | Cc1[nH]c2ccccc2c1C1CCN(CCCCNC(=O)c2ccc(-c3ccc(C#N)cc3)cc2)CC1 | 700 nM

Row | Compound | IC50
53 | O=C(NCc1cccc(F)c1)Nc1ccc(-c2cccc(-c3nc4ccccc4[nH]3)c2)cc1 | 890 nM
54 | CN1CCN(c2ccnc3ccc(NC(=O)Nc4ccc(-c5ccncc5)c(C(F)(F)F)c4)cc23)CC1 | 820 nM
55 | OCC1CCN(Cc2ccc(-c3ccc(-c4nc5ccc(C(F)(F)F)cc5[nH]4)s3)cc2)CC1 | 480 nM
56 | COc1ccc2nc(-c3ccc(C(=O)NCCCN4CCN(c5cc(Cl)ccc5OC)CC4)cc3OC)[nH]c2c1 | 870 nM
57 | CS(=O)(=O)N(c1cccc(F)c1)c1cc(C(=O)N[C@@H](Cc2ccccc2)[C@H](O)CNCc2cccc(C(F)(F)F)c2)cc(N2CCCC2=O)c1 | 910 nM
58 | Cc1cccc2[nH]c(-c3cccc(-c4cccc(CN5CCCC5CN)c4)c3)nc12 (stereo unspecified) | 770 nM
59 | Cc1cc(C)cc(NC(=S)NCCCCN2CCN(c3cccc(Cl)c3)CC2)c1 | 1350 nM
60 | Cc1ccccc1CNCC(O)c1cccc(C(F)(F)F)c1 (stereo unspecified) | 880 nM
61 | COCCCNC(=O)C1CCN(C(c2ccc(Cl)cc2)c2ccc(Cl)cc2)CC1 | 920 nM
62 | CCC(Cc1cnc2nc(N)nc(N)c2n1)c1ccc(C(=O)O)cc1 (stereo unspecified) | 250 nM
63 | COc1ccc2ccccc2c1CCCCN1CCN(CC(c2ccc(F)cc2)N2CCC2)CC1 (stereo unspecified) | 760 nM
64 | COc1ccc(Nc2nc(NN=Cc3cc(Cl)ccc3O)nc(Nc3ccccc3)n2)cc1 | 650 nM
65 | COc1ccc2c(OC)ccc(CNCCCCCCNCc3ccc(OC)c4ccc(OC)cc34)c2c1 | 400 nM
66 | CC[C@H]1CN2CC[C@@H]1C[C@H]2[C@H](O)c1cc(N2CCSCC2)nc2ccc(OC)cc12 | 200 nM
67 | N=C1c2ccccc2CN1CC(=O)c1ccc(Cl)c(Cl)c1 | 730 nM
68 | CCCCc1nc2nc(N)nc(N)c2cc1CCC | 310 nM
69 | O=C(Nc1ccccc1Cl)c1cc2ccccc2cc1O | 1010 nM
70 | O=C(Nc1cccc(-c2cccc(-c3nc4ccccc4[nH]3)c2)c1)N[C@@H]1C[C@H]1c1ccccc1 | 1070 nM and 900 nM
71 | CN1CCCN(Cc2ccc(-c3ccc(NC(=O)c4ccc(Cl)cc4)cc3)cc2)CC1 | 900 nM
72 | Cc1ccc(-c2cc(C(=O)Nc3ccc(S(=O)(=O)N4CCCCC4C)cc3)[nH]n2)c(O)c1 (stereo unspecified) | 1080 nM
73 | CN(C)c1ccc(C=CC(=O)NC(=O)c2ccccc2O)cc1 | 230 nM
74 | COc1ccc(Cl)cc1NC(=O)Nc1ccnc2ccccc12 | 680 nM
75 | COc1ccc2nc(C)cc(NN=Cc3ccc(F)cc3)c2c1 | 190 nM
76 | CCCNCc1ccc(-c2ccc(CN(Cc3ccc4c(c3)OCO4)C(=O)[C@H]3CCCO3)cc2)nc1 | 810 nM
77 | COc1ccc(C(=O)CCC(=O)N(Cc2ccc(-c3ccc(CNCCc4ccc(S(C)(=O)=O)cc4)cn3)cc2)C(C)CN(C)C)cc1F (stereo unspecified) | 650 nM
78 | CCN1CCC(N2CCC(n3c(C)nc4cc(C(F)(F)F)ccc43)CC2)CC1 | 1020 nM

Row | Compound | IC50
79 | NC(N)=NN=Cc1ccc2ccc3ccccc3c2c1 | 380 nM
80 | CCc1c[nH]c2c(N3CCCCS3(=O)=O)cc(C(=O)N[C@@H](Cc3ccccc3)[C@H](O)CNCc3cccc(OC)c3)cc12 | 910 nM
81 | O=c1cc(NCCCNCc2cccc(Oc3ccccc3)c2)[nH]c2ccccc12 | 950 nM
82 | Cc1nc(N)nc(N)c1-c1cccc(Cl)c1 | 1170 nM
83 | CCC(O)c1ccc(Br)cc1NC(=O)c1cccc(Cl)c1 (stereo unspecified) | 1020 nM
84 | COc1ccc2nccc([C@@H](O)CN3CCC(c4cc(-c5ccc(Cl)cc5)n[nH]4)CC3)c2n1 | 740 nM
85 | NC(=NC1CC1)c1ccc2nc(CCCCCc3nc4ccc(C(N)=NC5CC5)cc4[nH]3)[nH]c2c1 | 930 nM
86 | CCCCN(CCCC)CCCN(CCCN(CCCC)CCCC)c1cc(C)nc(Nc2ccc(Cl)cc2)n1 | 370 nM
87 | CC[C@H](C)CNC(=O)c1cncc(-c2cccc(CN(C)C3CCN(C)CC3)c2)c1 | 780 nM
88 | Cc1cc(NN=Cc2ccccc2Cl)c2cccc(C)c2n1 | 710 nM
89 | O=C(/C=C/c1ccc(Cl)c(Cl)c1)NCCCCCN1CCC(C(=O)Nc2ccc(F)c(Cl)c2)CC1 | 650 nM
90 | Cc1nc2nc(N)nc(N)c2c(C)c1Cc1cccc(F)c1 | 340 nM
91 | Cc1ccccc1C1CCN(C2CCC(NC(=O)/C=C/c3cc(F)cc(F)c3)CC2)CC1 (stereo unspecified) | 830 nM
92 | OC(CNc1ccnc(Nc2ccc(Cl)cc2)n1)c1ccc(C(F)(F)F)cc1 (stereo unspecified) | 770 nM
93 | O=C1C2C(C(=O)N1c1ccccc1)[C@H]1S[C@@H]2c2c1ccc1ccccc21 (stereo partly specified) | 770 nM
94 | N#Cc1cc(C(=O)c2cc(Cl)ccc2O)cn(-c2cc(Cl)cc(Cl)c2)c1=O | 850 nM
95 | CS(=O)(=O)CCNCc1cccc(-c2ccc3c(Nc4ccc(Oc5cccnc5)cc4)ccnc3c2)c1 | 140 nM
96 | COc1ccc2nccc([C@@H](O)CNCCCN(C)CCOc3cc(F)cc(F)c3)c2c1 | 790 nM
97 | COc1ccc(OCCCN2CCN(CC(c3ccc(F)cc3)N3CCN(C(C)C)CC3)CC2)c2ccccc12 (stereo unspecified) | 650 nM
98 | O=C1C(C2CCC(c3ccc(Cl)cc3)CC2)=C2OCC3COC2(O3)c2ccccc21 (stereo unspecified) | 40 nM
99 | O=C1C(=Cc2cc(Cc3ccccc3)ccc2O)SC(=S)N1Cc1ccccc1 | 940 nM
100 | CCOC(=O)c1ccc(-c2cnc(N)c(-c3nc4c(C)cccc4[nH]3)c2)cc1 | 280 nM
101 | CNC(=O)c1cnc(Nc2ccc(OCC(O)CN(C)C)cc2)nc1Nc1cccc(OC(C)C)c1 (stereo unspecified) | 140 nM
